Measurements reported in ChEMBL document CHEMBL1201862, “PubChem BioAssay data set” (2004).
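Exposure lasted 48 hours, with cells grown in 96-well plates and compounds tested at five concentrations. GI50 = concentration required for 50% inhibition of growth.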 The source made the active and inactive calls. No stated cut-off is given here; in the data, active = GI50 up to about 1.1 µM and inactive = higher.

Tests used:
Assay in all cases: NCI-60 cell line screen, 48 h
NCI-H522 = system: NCI-H522
CAKI-1 = system: CAKI-1
NCI-H23 = system: NCI-H23
IGROV-1 = system: IGROV-1
UACC-257 = system: UACC-257
Malme-3M = system: Malme-3M
SW-620 = system: SW-620
UACC-62 = system: UACC-62
A498 = system: A498
MDA-MB-231 = system: MDA-MB-231
MDA-MB-435 = system: MDA-MB-435
SK-MEL-5 = system: SK-MEL-5
A549 = system: A549
Hs-578T = system: Hs-578T
SNB-75 = system: SNB-75
HCT-15 = system: HCT-15
NCI/ADR-RES = system: NCI/ADR-RES
LOX IMVI = system: LOX IMVI
MOLT-4 = system: MOLT-4
OVCAR-3 = system: OVCAR-3
OVCAR-5 = system: OVCAR-5
EKVX = system: EKVX
NCI-H226 = system: NCI-H226
M14 = system: M14
U-251 = system: U-251
HT-29 = system: HT-29
MDA-N = system: MDA-N
COLO 205 = system: COLO 205
SN12C = system: SN12C
HL-60 = system: HL-60
RXF 393 = system: RXF 393
T47D = system: T47D
PC-3 = system: PC-3
SNB-19 = system: SNB-19
SF-539 = system: SF-539
UO-31 = system: UO-31
SF-268 = system: SF-268
HOP-62 = system: HOP-62
SK-OV-3 = system: SK-OV-3
RPMI-8226 = system: RPMI-8226
CCRF-CEM = system: CCRF-CEM
BT-549 = system: BT-549
TK-10 = system: TK-10
OVCAR-8 = system: OVCAR-8
K562 = system: K562
786-0 = system: 786-0
SF-295 = system: SF-295
KM12 = system: KM12
DU-145 = system: DU-145
SK-MEL-28 = system: SK-MEL-28
HOP-92 = system: HOP-92
ACHN = system: ACHN
HCT-116 = system: HCT-116
SK-MEL-2 = system: SK-MEL-2
NCI-H460 = system: NCI-H460
MCF7 = system: MCF7
OVCAR-4 = system: OVCAR-4
HCC 2998 = system: HCC 2998

O=c1[nH][nH]c(=O)n1Cc1ccccc1Cn1c(=O)[nH][nH]c1=O
GI50 (NCI-H522): > 100 µM (inactive)
GI50 (CAKI-1): > 100 µM (inactive)
GI50 (NCI-H23): > 100 µM (inactive)
GI50 (IGROV-1): > 100 µM (inactive)
GI50 (UACC-257): > 100 µM (inactive)
GI50 (Malme-3M): > 100 µM (inactive)
GI50 (SW-620): > 100 µM (inactive)
GI50 (UACC-62): > 100 µM (inactive)
GI50 (A498): > 100 µM (inactive)
GI50 (MDA-MB-231): > 100 µM (inactive)
GI50 (MDA-MB-435): > 100 µM (inactive)
GI50 (SK-MEL-5): > 100 µM (inactive)
GI50 (A549): > 100 µM (inactive)
GI50 (Hs-578T): > 100 µM (inactive)
GI50 (SNB-75): > 100 µM (inactive)
GI50 (HCT-15): > 100 µM
GI50 (NCI/ADR-RES): > 100 µM (inactive)
GI50 (LOX IMVI): > 100 µM (inactive)
GI50 (MOLT-4): > 100 µM (inactive)
GI50 (OVCAR-3): > 100 µM (inactive)
GI50 (OVCAR-5): > 100 µM (inactive)
GI50 (EKVX): > 100 µM (inactive)
GI50 (NCI-H226): > 100 µM (inactive)
GI50 (M14): > 100 µM (inactive)
GI50 (U-251): > 100 µM (inactive)
GI50 (HT-29): > 100 µM (inactive)
GI50 (MDA-N): > 100 µM (inactive)
GI50 (COLO 205): > 100 µM (inactive)
GI50 (SN12C): > 100 µM (inactive)
GI50 (HL-60): > 100 µM (inactive)
GI50 (RXF 393): > 100 µM (inactive)
GI50 (T47D): > 100 µM (inactive)
GI50 (PC-3): > 100 µM (inactive)
GI50 (SNB-19): > 100 µM (inactive)
GI50 (SF-539): > 100 µM (inactive)
GI50 (UO-31): > 100 µM (inactive)
GI50 (SF-268): > 100 µM (inactive)
GI50 (HOP-62): > 100 µM (inactive)
GI50 (SK-OV-3): > 100 µM (inactive)
GI50 (RPMI-8226): > 100 µM (inactive)
GI50 (CCRF-CEM): > 100 µM (inactive)
GI50 (BT-549): > 100 µM (inactive)
GI50 (TK-10): > 100 µM (inactive)
GI50 (OVCAR-8): > 100 µM (inactive)
GI50 (K562): > 100 µM (inactive)
GI50 (786-0): > 100 µM (inactive)
GI50 (SF-295): > 100 µM (inactive)
GI50 (KM12): > 100 µM (inactive)
GI50 (DU-145): > 100 µM (inactive)
GI50 (SK-MEL-28): > 100 µM (inactive)
GI50 (HOP-92): > 100 µM (inactive)
GI50 (ACHN): > 100 µM (inactive)
GI50 (HCT-116): > 100 µM (inactive)
GI50 (SK-MEL-2): > 100 µM (inactive)
GI50 (NCI-H460): > 100 µM (inactive)

CCOC(=O)CNC(=O)CNC(=O)CNC(=O)CNNc1c(OCc2ccccc2)c(=O)c1=O
GI50 (NCI-H522): > 100 µM (inactive)
GI50 (CAKI-1): > 100 µM (inactive)
GI50 (NCI-H23): > 100 µM (inactive)
GI50 (IGROV-1): > 100 µM (inactive)
GI50 (UACC-257): > 100 µM (inactive)
GI50 (Malme-3M): > 100 µM (inactive)
GI50 (SW-620): > 100 µM (inactive)
GI50 (UACC-62): > 100 µM (inactive)
GI50 (A498): > 100 µM (inactive)
GI50 (MDA-MB-231): > 100 µM (inactive)
GI50 (MDA-MB-435): > 100 µM (inactive)
GI50 (SK-MEL-5): > 100 µM (inactive)
GI50 (A549): > 100 µM (inactive)
GI50 (Hs-578T): > 100 µM (inactive)
GI50 (SNB-75): > 100 µM (inactive)
GI50 (HCT-15): > 100 µM
GI50 (NCI/ADR-RES): > 100 µM (inactive)
GI50 (MOLT-4): > 100 µM (inactive)
GI50 (OVCAR-3): > 100 µM (inactive)
GI50 (OVCAR-5): > 100 µM (inactive)
GI50 (EKVX): > 100 µM (inactive)
GI50 (MCF7): > 100 µM (inactive)
GI50 (NCI-H226): > 100 µM (inactive)
GI50 (OVCAR-4): > 100 µM (inactive)
GI50 (M14): > 100 µM (inactive)
GI50 (U-251): > 100 µM (inactive)
GI50 (HT-29): > 100 µM (inactive)
GI50 (MDA-N): > 100 µM (inactive)
GI50 (COLO 205): > 100 µM (inactive)
GI50 (SN12C): > 100 µM (inactive)
GI50 (RXF 393): > 100 µM (inactive)
GI50 (T47D): > 100 µM (inactive)
GI50 (PC-3): > 100 µM (inactive)
GI50 (SNB-19): > 100 µM (inactive)
GI50 (UO-31): > 100 µM (inactive)
GI50 (SF-268): > 100 µM (inactive)
GI50 (HOP-62): > 100 µM (inactive)
GI50 (SK-OV-3): > 100 µM (inactive)
GI50 (RPMI-8226): > 100 µM (inactive)
GI50 (CCRF-CEM): > 100 µM (inactive)
GI50 (BT-549): > 100 µM (inactive)
GI50 (TK-10): > 100 µM (inactive)
GI50 (OVCAR-8): > 100 µM (inactive)
GI50 (K562): > 100 µM (inactive)
GI50 (786-0): > 100 µM (inactive)
GI50 (KM12): > 100 µM (inactive)
GI50 (HCC 2998): > 100 µM (inactive)
GI50 (DU-145): > 100 µM (inactive)
GI50 (SK-MEL-28): > 100 µM (inactive)
GI50 (ACHN): > 100 µM (inactive)
GI50 (HCT-116): > 100 µM (inactive)
GI50 (SK-MEL-2): > 100 µM (inactive)

O=C(O)COc1c(Cl)cc(Cl)c(C(c2c(Cl)cc(Cl)c(OCC(=O)O)c2Cl)C(Cl)(Cl)Cl)c1Cl
GI50 (NCI-H522): 33.8 µM (inactive)
GI50 (CAKI-1): 33.7 µM (inactive)
GI50 (NCI-H23): 25.9 µM (inactive)
GI50 (IGROV-1): 32.8 µM (inactive)
GI50 (UACC-257): 26.2 µM (inactive)
GI50 (Malme-3M): 28.7 µM (inactive)
GI50 (SW-620): 29.8 µM (inactive)
GI50 (UACC-62): 18.9 µM (inactive)
GI50 (A498): 35.7 µM (inactive)
GI50 (MDA-MB-231): 24.9 µM (inactive)
GI50 (MDA-MB-435): 23 µM (inactive)
GI50 (SK-MEL-5): 18.5 µM (inactive)
GI50 (A549): 30.1 µM (inactive)
GI50 (Hs-578T): 38 µM (inactive)
GI50 (SNB-75): 29.6 µM (inactive)
GI50 (HCT-15): 26.4 µM
GI50 (NCI/ADR-RES): 34 µM (inactive)
GI50 (LOX IMVI): 33.7 µM (inactive)
GI50 (MOLT-4): 35.3 µM (inactive)
GI50 (OVCAR-5): 29.3 µM (inactive)
GI50 (MCF7): 36.1 µM (inactive)
GI50 (NCI-H226): 21.4 µM (inactive)
GI50 (OVCAR-4): 30.8 µM (inactive)
GI50 (M14): 20.7 µM (inactive)
GI50 (U-251): 26.7 µM (inactive)
GI50 (HT-29): 29 µM (inactive)
GI50 (MDA-N): > 100 µM (inactive)
GI50 (COLO 205): 40 µM (inactive)
GI50 (SN12C): 31 µM (inactive)
GI50 (HL-60): 21.7 µM (inactive)
GI50 (RXF 393): 30.9 µM (inactive)
GI50 (T47D): 30.3 µM (inactive)
GI50 (PC-3): 38 µM (inactive)
GI50 (SNB-19): > 100 µM (inactive)
GI50 (SF-539): 29.2 µM (inactive)
GI50 (UO-31): 23 µM (inactive)
GI50 (SF-268): 39.6 µM (inactive)
GI50 (HOP-62): 0.398 µM (active)
GI50 (SK-OV-3): 20.9 µM (inactive)
GI50 (RPMI-8226): 28.3 µM (inactive)
GI50 (BT-549): 23.1 µM (inactive)
GI50 (TK-10): 31.9 µM (inactive)
GI50 (OVCAR-8): 43.8 µM (inactive)
GI50 (K562): 33.3 µM (inactive)
GI50 (786-0): 37.2 µM (inactive)
GI50 (SF-295): 25 µM (inactive)
GI50 (KM12): 40.1 µM (inactive)
GI50 (HCC 2998): 12.1 µM (inactive)
GI50 (DU-145): 38.3 µM (inactive)
GI50 (SK-MEL-28): 40.2 µM (inactive)
GI50 (HOP-92): 25.2 µM (inactive)
GI50 (ACHN): 33.7 µM (inactive)
GI50 (HCT-116): 28.2 µM (inactive)
GI50 (SK-MEL-2): 19.8 µM (inactive)
GI50 (NCI-H460): 31.6 µM (inactive)
